Test results as given in US20200024278A1, “COMPOSITION COMPRISING ANTIBIOTIC COMPOUND AND AN HETEROCYCLIC COMPOUND AND THEIR USE IN PREVENTING OR TREATING BACTERIAL INFECTIONS” (MUTABILIS, priority 2016, published 2020).

Columns and labels:
Assay in all cases: MIC, broth microdilution (CLSI), substance alone or ATB combined with compound at 4 or 8 μg/mL
[1] = test system: ECL P99; type: cell-based, E. cloacae; settings: ECL P99; for MIC ATB combined with Example: Example @4 μg/ml
Procedure, shortened: (§1)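 Per CLSI-M7-A7, MICs are determined in cation-adjusted Mueller-Hinton broth with a final inoculum of 5·10^5 CFU/mL. Plates incubate 16-20 h at 35° C in air and are read by eye. Fosfomycin assays carry 25 μg/ml glucose-6-phosphate.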

[2] = test system: KPN 6299; type: cell-based, K. pneumoniae; settings: for MIC ATB combined with Example: Example @4 μg/ml
Procedure, shortened: as §1

[3] = test system: KPN BAA-1898; type: cell-based, K. pneumoniae; settings: KPN BAA-1898; for MIC ATB combined with Example: Example @4 μg/ml
Procedure, shortened: as §1

[4] = test system: KPN UFR42; type: cell-based, K. pneumoniae; settings: KPN UFR42; for MIC ATB combined with Example: Example @4 μg/ml; for MIC ATB combined with Example compound: compound @4 μg/ml
Procedure, shortened: as §1

[5] = test system: PAE UFR90; type: cell-based, P. aeruginosa; settings: PAE UFR90; for MIC ATB combined with Example: Example @4 μg/ml; for MIC ATB combined with Example compound: compound @4 μg/ml
Procedure, shortened: as §1

[6] = test system: PAE UFR48; type: cell-based, P. aeruginosa; settings: PAE UFR48; for MIC ATB combined with Example: Example @4 μg/ml; for MIC ATB combined with Example compound: compound @4 μg/ml
Procedure, shortened: as §1

[7] = test system: PAE 105250; type: cell-based, P. aeruginosa; settings: PAE 105250; for MIC ATB combined with Example: Example @4 μg/ml; for MIC ATB combined with Example compound: compound @4 μg/ml
Procedure, shortened: as §1

[8] = test system: SPN 49619; type: cell-based, S. pneumoniae; settings: SPN 49619; for MIC ATB combined with Example: Example @4 μg/ml; for MIC ATB combined with Example compound: compound @4 μg/ml
Procedure, shortened: as §1

[9] = test system: ECO UFR39; type: cell-based, E. coli; settings: ECO UFR39; for MIC ATB combined with Example: Example @4 μg/ml; for MIC ATB combined with Example compound: compound @4 μg/ml
Procedure, shortened: as §1

[10] = test system: ECO 190317; type: cell-based, E. coli; settings: ECO 190317; for MIC ATB combined with Example: Example @4 μg/ml
Procedure, shortened: as §1

[11] = test system: SAU 29213; type: cell-based, S. aureus; settings: for MIC ATB combined with Example / MIC ATB combined with Example compound: SAU 29213; for MIC ATB combined with Example: Example @4 μg/ml; for MIC ATB combined with Example compound: compound @4 μg/ml
Procedure, shortened: as §1

O=C1N2CC(n3ccnn3)=C[C@H](C2)N1OS(=O)(=O)[O-].[Na+] [Example 16, sodium [(5R)-7-oxo-3-(triazol-1-yl)-1,6-diazabicyclo[3.2.1]oct-3-en-6-yl] sulfate] was tested, and the “MIC ATB combined with Example” value ([1]; ATB ATM) was under 0.031 µg/mL, the “MIC ATB combined with Example” value ([1]; ATB FEP) was under 0.031 µg/mL and the “MIC ATB combined with Example” value ([1]; ATB FOS) was under 0.125 µg/mL. For the same compound, the “MIC ATB combined with Example” value ([1]; ATB MEM) was under 0.031 µg/mL, the “MIC ATB combined with Example” value ([1]; ATB PIP) was under 0.031 µg/mL and the “MIC ATB combined with Example compound” value ([1]; MIC of CIP, compound @4 μg/ml) was “<=0.031 μg/mL”. The MIC ([1]; substance alone) was 1 µg/mL, the “MIC ATB combined with Example” value ([2]; ATB ATM) was under 0.031 µg/mL and the “MIC ATB combined with Example” value ([2]; ATB FEP) was under 0.031 µg/mL. The “MIC ATB combined with Example” value ([2]; ATB FOS) was under 0.125 µg/mL, the “MIC ATB combined with Example” value ([2]; ATB MEM) was under 0.031 µg/mL and the “MIC ATB combined with Example” value ([2]; ATB PIP) was under 0.031 µg/mL. For the same compound, the “MIC ATB combined with Example compound” value ([2]; MIC of CIP, compound @4 μg/ml) was under 0.031 µg/mL, the “MIC ATB combined with Example” value ([3]; ATB ATM) was under 0.031 µg/mL and the “MIC ATB combined with Example” value ([3]; ATB FEP) was under 0.031 µg/mL. For the same compound, the “MIC ATB combined with Example” value ([3]; ATB FOS) was under 0.125 µg/mL, the “MIC ATB combined with Example” value ([3]; ATB MEM) was under 0.031 µg/mL and the “MIC ATB combined with Example” value ([3]; ATB PIP) was under 0.031 µg/mL. For the same compound, the “MIC ATB combined with Example compound” value ([3]; MIC of CIP, compound @4 μg/ml) was under 0.031 µg/mL, the MIC ([3]; substance alone) was 1 µg/mL and the “MIC ATB combined with Example” value ([4]; ATB ATM) was under 0.031 µg/mL. For the same compound, the “MIC ATB combined with Example” value ([4]; ATB FEP) was under 0.031 µg/mL, the “MIC ATB combined with Example” value ([4]; ATB FOS) was under 0.125 µg/mL and the “MIC ATB combined with Example” value ([4]; ATB MEM) was under 0.031 µg/mL. The “MIC ATB combined with Example” value ([4]; ATB PIP) was under 0.031 µg/mL, the “MIC ATB combined with Example compound” value ([4]; MIC of CIP) was under 0.031 µg/mL and the “MIC ATB combined with Example compound” value ([4]; MIC of CPO) was under 0.031 µg/mL. The MIC ([4]; substance alone) was 2 µg/mL, the “MIC ATB combined with Example” value ([5]; ATB ATM) was 16 µg/mL and the “MIC ATB combined with Example” value ([5]; ATB FEP) was 4 µg/mL. The “MIC ATB combined with Example” value ([5]; ATB FOS) was 8 µg/mL, the “MIC ATB combined with Example” value ([5]; ATB MEM) was 1 µg/mL and the “MIC ATB combined with Example” value ([5]; ATB PIP) was over 32 µg/mL. The “MIC ATB combined with Example compound” value ([5]; MIC of CIP) was 1 µg/mL, the “MIC ATB combined with Example compound” value ([5]; MIC of CPO) was 8 µg/mL and the MIC ([5]; substance alone) was over 32 µg/mL. For the same compound, the “MIC ATB combined with Example” value ([6]; ATB ATM) was 8 µg/mL, the “MIC ATB combined with Example” value ([6]; ATB FEP) was 16 µg/mL and the “MIC ATB combined with Example” value ([6]; ATB FOS) was 32 µg/mL. The “MIC ATB combined with Example” value ([6]; ATB MEM) was 0.25 µg/mL, the “MIC ATB combined with Example” value ([6]; ATB PIP) was 16 µg/mL and the “MIC ATB combined with Example compound” value ([6]; MIC of CIP) was 4 µg/mL. The “MIC ATB combined with Example compound” value ([6]; MIC of CPO) was over 32 µg/mL, the MIC ([6]; substance alone) was 32 µg/mL and the “MIC ATB combined with Example” value ([7]; ATB ATM) was 8 µg/mL. For the same compound, the “MIC ATB combined with Example” value ([7]; ATB FEP) was 4 µg/mL, the “MIC ATB combined with Example” value ([7]; ATB FOS) was over 128 µg/mL and the “MIC ATB combined with Example” value ([7]; ATB MEM) was 2 µg/mL. For the same compound, the “MIC ATB combined with Example” value ([7]; ATB PIP) was over 32 µg/mL, the “MIC ATB combined with Example compound” value ([7]; MIC of CIP) was 0.125 µg/mL and the “MIC ATB combined with Example compound” value ([7]; MIC of CPO) was 8 µg/mL. For the same compound, the MIC ([7]; substance alone) was 32 µg/mL, the “MIC ATB combined with Example” value ([8]; ATB ATM) was over 32 µg/mL and the “MIC ATB combined with Example” value ([8]; ATB FEP) was “<=0.031 μg/mL”. For the same compound, the “MIC ATB combined with Example” value ([8]; ATB FOS) was 8 µg/mL, the “MIC ATB combined with Example” value ([8]; ATB MEM) was “<=0.031 μg/mL” and the “MIC ATB combined with Example” value ([8]; ATB PIP) was 0.5 µg/mL. For the same compound, the “MIC ATB combined with Example compound” value ([8]; MIC of CIP) was “<=0.031 μg/mL”, the “MIC ATB combined with Example compound” value ([8]; MIC of CLI) was under 0.0010 µg/mL and the “MIC ATB combined with Example compound” value ([8]; MIC of CPO) was “<=0.031 μg/mL”. The “MIC ATB combined with Example compound” value ([8]; MIC of DAP) was 0.031 µg/mL, the “MIC ATB combined with Example compound” value ([8]; MIC of ERY) was under 0.0020 µg/mL and the “MIC ATB combined with Example compound” value ([8]; MIC of LZD) was 0.125 µg/mL. The “MIC ATB combined with Example compound” value ([8]; MIC of RIF) was 0.00049 µg/mL, the “MIC ATB combined with Example compound” value ([8]; MIC of SYN) was 0.5 µg/mL and the “MIC ATB combined with Example compound” value ([8]; MIC of VAN) was 0.0078 µg/mL. The MIC ([8]; substance alone) was 4 µg/mL, the “MIC ATB combined with Example” value ([9]; ATB ATM) was under 0.031 µg/mL and the “MIC ATB combined with Example” value ([9]; ATB FEP) was under 0.031 µg/mL. The “MIC ATB combined with Example” value ([9]; ATB FOS) was under 0.125 µg/mL, the “MIC ATB combined with Example” value ([9]; ATB MEM) was under 0.031 µg/mL and the “MIC ATB combined with Example” value ([9]; ATB PIP) was under 0.031 µg/mL. The “MIC ATB combined with Example compound” value ([9]; MIC of CIP) was under 0.031 µg/mL, the “MIC ATB combined with Example compound” value ([9]; MIC of CPO) was under 0.031 µg/mL and the MIC ([9]; substance alone) was 0.5 µg/mL. The “MIC ATB combined with Example” value ([10]; ATB ATM) was under 0.031 µg/mL, the “MIC ATB combined with Example” value ([10]; ATB FEP) was under 0.031 µg/mL and the “MIC ATB combined with Example” value ([10]; ATB FOS) was under 0.125 µg/mL. The “MIC ATB combined with Example” value ([10]; ATB MEM) was under 0.031 µg/mL, the “MIC ATB combined with Example” value ([10]; ATB PIP) was under 0.031 µg/mL and the “MIC ATB combined with Example compound” value ([10]; MIC of CIP, compound @4 μg/ml) was under 0.031 µg/mL. For the same compound, the MIC ([10]; substance alone) was 0.5 µg/mL, the “MIC ATB combined with Example” value ([11]; ATB ATM) was under 0.031 µg/mL and the “MIC ATB combined with Example” value ([11]; ATB FEP) was under 0.031 µg/mL. For the same compound, the “MIC ATB combined with Example” value ([11]; ATB FOS) was “<=0.125 μg/mL”, the “MIC ATB combined with Example” value ([11]; ATB MEM) was “<=0.031 μg/mL” and the “MIC ATB combined with Example” value ([11]; ATB PIP) was under 0.031 µg/mL. For the same compound, the “MIC ATB combined with Example compound” value ([11]; MIC of CIP) was under 0.031 µg/mL, the “MIC ATB combined with Example compound” value ([11]; MIC of CLI) was under 0.0010 µg/mL and the “MIC ATB combined with Example compound” value ([11]; MIC of CPO) was under 0.031 µg/mL. For the same compound, the “MIC ATB combined with Example compound” value ([11]; MIC of DAP) was under 0.0020 µg/mL, the “MIC ATB combined with Example compound” value ([11]; MIC of ERY) was under 0.0020 µg/mL and the “MIC ATB combined with Example compound” value ([11]; MIC of LZD) was under 0.0078 µg/mL. For the same compound, the “MIC ATB combined with Example compound” value ([11]; MIC of RIF) was under 0.00012 µg/mL, the “MIC ATB combined with Example compound” value ([11]; MIC of SYN) was under 0.0020 µg/mL and the “MIC ATB combined with Example compound” value ([11]; MIC of VAN) was under 0.0039 µg/mL. The MIC ([11]; substance alone, SAU 29213 (MSSA 29213)) was 4 µg/mL.
